Measurements reported in the NIST ThermoML archive (doi:10.1007/s10765-006-0088-4).
Numbers after ± are expanded uncertainties.

Conditions: Liquid; for vapor or sublimation pressure: Closed cell (Static) method

CCC [propane]
Conditions | vapor or sublimation pressure [kPa]
280 K | 583.1 ± 1.2
300 K | 999 ± 2.1
320 K | 1599.8 ± 3.3
340 K | 2432.2 ± 5
360 K | 3556.3 ± 7.2
365 K | 3894.1 ± 7.9
367 K | 4036.8 ± 8.2
369 K | 4184.4 ± 8.5

mass density [kg/m3]
Conditions | 340 K | 360 K | 380 K | 400 K
3000 kPa, Vibrating tube method | 418.08 ± 0.51 | – | – | –
5000 kPa, Vibrating tube method | 433.15 ± 0.54 | 380.52 ± 0.48 | – | –
10000 kPa, Buoyancy - hydrostatic balance with magnetic suspension - two sinkers | 457.22 ± 0.51 | 423.91 ± 0.47 | 383.94 ± 0.42 | 334.82 ± 0.37
20000 kPa, Buoyancy - hydrostatic balance with magnetic suspension - one sinker | 486.49 ± 0.54 | 463.18 ± 0.52 | 438.11 ± 0.49 | 412.17 ± 0.46
30000 kPa, Buoyancy - hydrostatic balance with magnetic suspension - one sinker | 506.41 ± 0.56 | 486.97 ± 0.55 | 466.65 ± 0.53 | 446.42 ± 0.51
40000 kPa, Bellows volumetry | 521.92 ± 0.58 | 504.75 ± 0.56 | 486.9 ± 0.54 | 469.52 ± 0.52
50000 kPa, Bellows volumetry | 534.58 ± 0.6 | 519.13 ± 0.59 | 502.92 ± 0.57 | 487.17 ± 0.56
60000 kPa, Bellows volumetry | 545.76 ± 0.61 | 531.24 ± 0.6 | 516.27 ± 0.59 | 501.88 ± 0.58
70000 kPa, Bellows volumetry | 555.4 ± 0.62 | 541.74 ± 0.61 | 527.68 ± 0.6 | 514.4 ± 0.59
80000 kPa, Bellows volumetry | 564.13 ± 0.63 | 551.28 ± 0.62 | 537.77 ± 0.61 | 525.29 ± 0.6
90000 kPa, Bellows volumetry | 571.96 ± 0.64 | 559.54 ± 0.63 | 546.83 ± 0.62 | 534.99 ± 0.61
100000 kPa, Bellows volumetry | 579.21 ± 0.65 | 567.52 ± 0.64 | 555.08 ± 0.63 | 543.68 ± 0.62
120000 kPa, Bellows volumetry | 592 ± 0.67 | 581.13 ± 0.66 | 569.69 ± 0.65 | 559.13 ± 0.64
140000 kPa, Bellows volumetry | 603.23 ± 0.68 | 593.24 ± 0.67 | 582.4 ± 0.66 | 572.43 ± 0.65
160000 kPa, Bellows volumetry | 613.42 ± 0.74 | 603.94 ± 0.74 | 593.57 ± 0.74 | 584.27 ± 0.74
180000 kPa, Bellows volumetry | 622.47 ± 0.76 | 613.6 ± 0.75 | 603.76 ± 0.75 | 594.86 ± 0.75
200000 kPa, Bellows volumetry | 631.34 ± 0.78 | 622.28 ± 0.76 | 612.75 ± 0.77 | 604.47 ± 0.77
